# Earlier results, collected in patent publication US20070160663A1, “Single unit pharmaceutical composition comprising a mixture of fenofibrate and a modified release form of a homocysteine reducing agent” (GALEPHAR PHARMACEUTICAL RESEARCH, INC., priority 2003, published 2007).
compound,measurement,setting,value
CC(C)(Oc1ccc(C(=O)c2ccc(Cl)cc2)cc1)C(=O)O [Fenofibric acid],Tmax (time to peak plasma level),after oral administration of a conventional marketed form such as Lipanthyl tablet or Fenogal capsule,3 to 6 h
Nc1nc2ncc(CNc3ccc(C(=O)N[C@@H](CCC(=O)O)C(=O)O)cc3)nc2c(=O)[nH]1 [folic acid],elimination half-life,in vivo,3 h
"CC(C)OC(=O)C(C)(C)Oc1ccc(C(=O)c2ccc(Cl)cc2)cc1 [Fenofibrate, p-(4-chlorobenzoyl)-phenoxy isobutyrate isopropyl ester]",Tmax,after oral administration,3 to 6 h
